Results as given in ChEMBL document CHEMBL5233275, “Effect of Flexibility, Lipophilicity, and the Location of Polar Residues on the Passive Membrane Permeability of a Series of Cyclic Decapeptides” (J Med Chem, 2021).
Values after ≈ are worked out from the molar mass of the structure shown. Where a SMILES comes first, the peptide text is derived from it. [ ]: non-standard residue; d: D form. NMeF = CN[C@@H](Cc1ccccc1)C(=O)O; NMeA = CN[C@@H](C)C(=O)O; dNMeA = CN[C@H](C)C(=O)O; Sar = CNCC(=O)O

Key:
Assay type in all cases: physicochemical
[1] = Solubility of the compound by high-throughput equilibrium solubility assay
[2] = Decadiene/water partition coefficient, logD of compound at pH 7.4 by HPLC analysis
[3] = Octanol/water partition coefficient, logD of compound at pH 7.4 by HPLC analysis

Row | Structure (SMILES) | solubility thermodynamic [1] [µM] | logD hydrocarbon water [2] | logD [3]
1 | CC(C)C[C@@H]1NC(=O)[C@H]([C@@H](C)O)N(C)C(=O)[C@H]2CCCN2C(=O)[C@H](CC(C)C)NC(=O)[C@H]([C@@H](C)O)N(C)C(=O)[C@H](CC(C)C)NC(=O)[C@H](C)N(C)C(=O)[C@H]2CCCN2C(=O)[C@H](CC(C)C)NC(=O)[C@H]([C@@H](C)O)N(C)C1=O | 827 (≈ 891 µg/mL) | 0.4 | 
2 | CC(C)C[C@@H]1NC(=O)[C@H](C)N(C)C(=O)[C@H]2CCCN2C(=O)[C@H](CC(C)C)NC(=O)[C@H](C)N(C)C(=O)[C@H](CC(C)C)NC(=O)[C@H]([C@@H](C)O)N(C)C(=O)[C@H]2CCCN2C(=O)[C@H](CC(C)C)NC(=O)[C@H]([C@@H](C)O)N(C)C1=O | > 1000 | 1.2 | 
3 | CC(C)C[C@@H]1NC(=O)[C@H]([C@@H](C)O)N(C)C(=O)[C@H]2CCCN2C(=O)[C@H](CC(C)C)NC(=O)[C@H](C)N(C)C(=O)[C@H](CC(C)C)NC(=O)[C@H](Cc2ccccc2)N(C)C(=O)[C@H]2CCCN2C(=O)[C@H](CC(C)C)NC(=O)[C@H](C)N(C)C1=O | 65 (≈ 71.1 µg/mL) | 3.7 | 5.7
4 | CC(C)C[C@@H]1NC(=O)[C@H](C)N(C)C(=O)[C@H]2CCCN2C(=O)[C@H](CC(C)C)NC(=O)[C@H](C)N(C)C(=O)[C@H](CC(C)C)NC(=O)[C@H](C)N(C)C(=O)[C@H]2CCCN2C(=O)[C@H]([C@@H](C)O)NC(=O)[C@H](C)N(C)C1=O | > 1000 | 0.1 | 2.6
5 | CC(C)C[C@@H]1NC(=O)[C@H](Cc2ccccc2)N(C)C(=O)[C@H]2CCCN2C(=O)[C@H](CC(C)C)NC(=O)[C@H](C)N(C)C(=O)[C@H]([C@@H](C)O)NC(=O)[C@H](Cc2ccccc2)N(C)C(=O)[C@H]2CCCN2C(=O)[C@H](CC(C)C)NC(=O)[C@H](C)N(C)C1=O | 15 (≈ 16.9 µg/mL) | 4 | 5.4
6 | CC(C)C[C@@H]1NC(=O)[C@H](Cc2ccccc2)N(C)C(=O)[C@H]2CCCN2C(=O)[C@H](CC(C)C)NC(=O)[C@H](C)N(C)C(=O)[C@H](CC(C)C)NC(=O)[C@H](Cc2ccccc2)N(C)C(=O)[C@H]2CCCN2C(=O)[C@H]([C@@H](C)O)NC(=O)[C@H](C)N(C)C1=O | 20 (≈ 22.5 µg/mL) | 3.6 | 5.1
7 | CC(C)C[C@@H]1NC(=O)[C@H]([C@@H](C)O)N(C)C(=O)[C@H]2CCCN2C(=O)[C@H](CC(C)C)NC(=O)[C@H]([C@@H](C)O)N(C)C(=O)[C@H](CC(C)C)NC(=O)[C@H]([C@@H](C)O)N(C)C(=O)[C@H]2CCCN2C(=O)[C@H](CC(C)C)NC(=O)[C@H]([C@@H](C)O)N(C)C1=O | > 1000 | -0.8 | 
8 | CC(C)C[C@@H]1NC(=O)[C@H](C)N(C)C(=O)[C@H]2CCCN2C(=O)[C@H](CC(C)C)NC(=O)[C@H](C)N(C)C(=O)[C@H](CC(C)C)NC(=O)[C@H](C)N(C)C(=O)[C@@H]2C[C@@H](O)CN2C(=O)[C@H](CC(C)C)NC(=O)[C@H](C)N(C)C1=O | 910 (≈ 913 µg/mL) | 0.2 | 4.1
9 | CC(C)C[C@@H]1NC(=O)[C@H](C)N(C)C(=O)[C@H]2CCCN2C(=O)[C@H](CC(C)C)NC(=O)[C@H](C)N(C)C(=O)[C@H](CC(C)C)NC(=O)[C@H](C)N(C)C(=O)[C@H]2CCCN2C(=O)[C@H](CC(C)C)NC(=O)[C@H](C)N(C)C1=O | 794 (≈ 784 µg/mL) | 2.5 | 4.7
10 | CC(C)C[C@@H]1NC(=O)[C@H](C)N(C)C(=O)[C@H](CC(C)C)NC(=O)[C@@H]2CCCN2C(=O)CN(C)C(=O)[C@H](CC(C)C)NC(=O)[C@H](C)N(C)C(=O)[C@H](CC(C)C)NC(=O)[C@@H]2CCCN2C(=O)CN(C)C1=O (cyclo(L[NMeA]L[Sar]PL[NMeA]L[Sar]P)) | > 1000 | 0.3 | 
11 | CC(C)C[C@@H]1NC(=O)[C@H](C)N(C)C(=O)[C@H](CC(C)C)NC(=O)[C@H](C)N(C)C(=O)[C@@H](C)N(C)C(=O)[C@H](CC(C)C)NC(=O)[C@H](C)N(C)C(=O)[C@H](CC(C)C)NC(=O)[C@H](C)N(C)C(=O)[C@@H](C)N(C)C1=O (cyclo(L[NMeA]L[dNMeA][NMeA]L[NMeA]L[dNMeA][NMeA])) | 477 (≈ 459 µg/mL) | 2.7 | 4.6

Second part, the molecule after the results:

Row | solubility thermodynamic [1] [µM] | logD hydrocarbon water [2] | logD [3] | Structure (SMILES)
12 | > 1000 | 0.4 | 2.7 | CC(C)C[C@@H]1NC(=O)[C@H](C)N(C)C(=O)[C@H]2CCCN2C(=O)[C@H](CC(C)C)NC(=O)[C@H](C)N(C)C(=O)[C@H]([C@@H](C)O)NC(=O)[C@H](C)N(C)C(=O)[C@H]2CCCN2C(=O)[C@H](CC(C)C)NC(=O)[C@H](C)N(C)C1=O
13 | 92 (≈ 93.4 µg/mL) | 3.1 | 5.1 | CC(C)C[C@@H]1NC(=O)[C@H](C)N(C)C(=O)[C@H](CC(C)C)NC(=O)[C@H]2CCCN2C(=O)[C@@H]2CCCN2C(=O)[C@H](CC(C)C)NC(=O)[C@H](C)N(C)C(=O)[C@H](CC(C)C)NC(=O)[C@H](C(C)C)N(C)C(=O)[C@@H](C)N(C)C1=O
14 | 57 (≈ 59.5 µg/mL) | 3.8 | 5.1 | CC(C)C[C@@H]1NC(=O)[C@H](C(C)C)N(C)C(=O)[C@H]2CCCN2C(=O)[C@H](CC(C)C)NC(=O)[C@H](C)N(C)C(=O)[C@H](CC(C)C)NC(=O)[C@H](C(C)C)N(C)C(=O)[C@H]2CCCN2C(=O)[C@H](CC(C)C)NC(=O)[C@H](C)N(C)C1=O
15 | 320 (≈ 360 µg/mL) | -0.6 | 4.7 | CC(C)C[C@@H]1NC(=O)[C@H]([C@@H](C)O)N(C)C(=O)[C@@H]2C[C@@H](O)CN2C(=O)[C@H](CC(C)C)NC(=O)[C@H](C)N(C)C(=O)[C@H](CC(C)C)NC(=O)[C@H](Cc2ccccc2)N(C)C(=O)[C@@H]2C[C@@H](O)CN2C(=O)[C@H](CC(C)C)NC(=O)[C@H](C)N(C)C1=O
16 | 763 (≈ 776 µg/mL) | 1.7 |  | CC(C)C[C@@H]1NC(=O)[C@H](C)N(C)C(=O)[C@H]2CCCN2C(=O)[C@H](CC(C)C)NC(=O)[C@H](C)N(C)C(=O)[C@H](CC(C)C)NC(=O)[C@H](C)N(C)C(=O)[C@H]2CCCN2C(=O)[C@H](CC(C)C)NC(=O)[C@H]([C@@H](C)O)N(C)C1=O
17 | 884 (≈ 926 µg/mL) | 1.2 | 3.8 | CC(C)C[C@@H]1NC(=O)[C@H]([C@@H](C)O)N(C)C(=O)[C@H]2CCCN2C(=O)[C@H](CC(C)C)NC(=O)[C@H](C)N(C)C(=O)[C@H](CC(C)C)NC(=O)[C@H]([C@@H](C)O)N(C)C(=O)[C@H]2CCCN2C(=O)[C@H](CC(C)C)NC(=O)[C@H](C)N(C)C1=O
18 | 4 (≈ 4.68 µg/mL) | 5 | 5.7 | CC(C)C[C@@H]1NC(=O)[C@H](Cc2ccccc2)N(C)C(=O)[C@H]2CCCN2C(=O)[C@H](CC(C)C)NC(=O)[C@H](C)N(C)C(=O)[C@H](CC(C)C)NC(=O)[C@H](Cc2ccccc2)N(C)C(=O)[C@H]2CCCN2C(=O)[C@H](CC(C)C)NC(=O)[C@H]([C@@H](C)O)N(C)C1=O
19 | 220 (≈ 222 µg/mL) | 1.6 | 4.3 | CC(C)C[C@@H]1NC(=O)[C@@H]2CCCN2C(=O)[C@H]2CCCN2C(=O)[C@H](CC(C)C)NC(=O)[C@H](C)N(C)C(=O)[C@H](CC(C)C)NC(=O)[C@@H]2CCCN2C(=O)[C@H]2CCCN2C(=O)[C@H](CC(C)C)NC(=O)[C@H](C)N(C)C1=O
20 | 220 (≈ 227 µg/mL) | 4 | 5.2 | CC(C)C[C@@H]1NC(=O)[C@H](C(C)C)N(C)C(=O)[C@H]2CCCN2C(=O)[C@H](CC(C)C)NC(=O)[C@@H](C)N(C)C(=O)[C@H](CC(C)C)NC(=O)[C@H](C(C)C)N(C)C(=O)[C@H](C)N(C)C(=O)[C@H](CC(C)C)NC(=O)[C@@H](C)N(C)C1=O
21 | 560 (≈ 571 µg/mL) | 3.8 | 5.2 | CC(C)C[C@@H]1NC(=O)[C@H](C)N(C)C(=O)[C@H](CC(C)C)NC(=O)[C@H](C(C)C)N(C)C(=O)[C@@H](C)N(C)C(=O)[C@H](CC(C)C)NC(=O)[C@H](C)N(C)C(=O)[C@H](CC(C)C)NC(=O)[C@H](C(C)C)N(C)C(=O)[C@@H](C)N(C)C1=O
22 | 445 (≈ 466 µg/mL) | 1 |  | CC(C)C[C@@H]1NC(=O)[C@H](C)N(C)C(=O)[C@H]2CCCN2C(=O)[C@H](CC(C)C)NC(=O)[C@H]([C@@H](C)O)N(C)C(=O)[C@H](CC(C)C)NC(=O)[C@H](C)N(C)C(=O)[C@H]2CCCN2C(=O)[C@H](CC(C)C)NC(=O)[C@H]([C@@H](C)O)N(C)C1=O
23 | 4 (≈ 4.46 µg/mL) | 5.1 |  | CC(C)C[C@@H]1NC(=O)[C@H](C)N(C)C(=O)[C@H](CC(C)C)NC(=O)[C@H](Cc2ccccc2)N(C)C(=O)[C@@H](C)N(C)C(=O)[C@H](CC(C)C)NC(=O)[C@H](C)N(C)C(=O)[C@H](CC(C)C)NC(=O)[C@H](Cc2ccccc2)N(C)C(=O)[C@@H](C)N(C)C1=O (cyclo(L[NMeA]L[dNMeA][NMeF]L[NMeA]L[dNMeA][NMeF]))
24 | 4 (≈ 4.56 µg/mL) | > 3.5 | > 5.7 | CC(C)C[C@@H]1NC(=O)[C@H](Cc2ccccc2)N(C)C(=O)[C@H]2CCCN2C(=O)[C@H](CC(C)C)NC(=O)[C@H](C)N(C)C(=O)[C@H](CC(C)C)NC(=O)[C@H](Cc2ccccc2)N(C)C(=O)[C@H]2CCCN2C(=O)[C@H](CC(C)C)NC(=O)[C@H](C)N(C)C1=O (cyclo(L[NMeA]L[dP][NMeF]L[NMeA]L[dP][NMeF]))
